Test results from the NIST ThermoML archive (doi:10.1016/j.jct.2005.02.004).
± gives the expanded uncertainty stated by the source.

Details: Liquid, Vibrating tube method

CO [methanol]
Details | mass density [kg/m3]
298.26 K, 235 kPa | 785.98 ± 0.42
298.26 K, 5000 kPa | 790.69 ± 0.43
298.26 K, 9999 kPa | 795.4 ± 0.44
298.26 K, 15013 kPa | 799.88 ± 0.45
298.26 K, 19987 kPa | 804.1 ± 0.47
298.26 K, 25008 kPa | 808.17 ± 0.48
298.26 K, 29997 kPa | 812.04 ± 0.5
298.26 K, 34991 kPa | 815.76 ± 0.52
298.26 K, 39981 kPa | 819.34 ± 0.53
323.22 K, 270 kPa | 762.14 ± 0.42
323.22 K, 4990 kPa | 767.53 ± 0.43
323.22 K, 9984 kPa | 772.87 ± 0.45
323.22 K, 14982 kPa | 777.91 ± 0.46
323.22 K, 19989 kPa | 782.69 ± 0.48
323.22 K, 24986 kPa | 787.21 ± 0.5
323.22 K, 29995 kPa | 791.53 ± 0.52
323.22 K, 34987 kPa | 795.64 ± 0.54
323.22 K, 39993 kPa | 799.6 ± 0.56
348.25 K, 366 kPa | 737.29 ± 0.43
348.25 K, 4987 kPa | 743.46 ± 0.44
348.25 K, 9986 kPa | 749.65 ± 0.46
348.25 K, 14991 kPa | 755.42 ± 0.47
348.25 K, 20004 kPa | 760.84 ± 0.49
348.25 K, 25020 kPa | 765.94 ± 0.52
348.25 K, 30013 kPa | 770.76 ± 0.54
348.25 K, 34989 kPa | 775.32 ± 0.56
348.25 K, 40000 kPa | 779.7 ± 0.58
373.26 K, 534 kPa | 710.55 ± 0.43
373.26 K, 4983 kPa | 717.67 ± 0.44
373.26 K, 9990 kPa | 724.99 ± 0.46
373.26 K, 14998 kPa | 731.69 ± 0.49
373.26 K, 19985 kPa | 737.88 ± 0.51
373.26 K, 24994 kPa | 743.68 ± 0.53
373.26 K, 29997 kPa | 749.13 ± 0.56
373.26 K, 35001 kPa | 754.27 ± 0.58
373.26 K, 39996 kPa | 759.14 ± 0.61
398.28 K, 934 kPa | 680.93 ± 0.44
398.28 K, 4984 kPa | 689 ± 0.45
398.28 K, 9998 kPa | 697.91 ± 0.47
398.28 K, 14986 kPa | 705.88 ± 0.5
398.28 K, 19987 kPa | 713.16 ± 0.53
398.28 K, 24992 kPa | 719.87 ± 0.55
398.28 K, 29991 kPa | 726.11 ± 0.58
398.28 K, 35005 kPa | 731.99 ± 0.61
398.28 K, 40004 kPa | 737.47 ± 0.64
